Source: ChEMBL document CHEMBL1132050, “Synthesis of novel analogues of the delta opioid ligand SNC-80 using AlCl3-promoted aminolysis” (Bioorg Med Chem Lett, 1999)

Experiments:
[1] = target: T1, Delta-type opioid receptor (Homo sapiens, UniProt P41143); test: Inhibition of binding of [3H]- -naltrindole (0.15 nM) to membranes from CHO cells expressing Opioid receptor delta 1; assay type: cell membranes
Mu-type opioid receptor = Mu-type opioid receptor (Rattus norvegicus, UniProt P33535); test: Binding affinity towards mu opioid receptor using [3H]- -DAMGO (1.5 nM) as radioligand in rat brain membranes; assay type: cell membranes
Sequence of Mu-type opioid receptor (P33535 whole entry): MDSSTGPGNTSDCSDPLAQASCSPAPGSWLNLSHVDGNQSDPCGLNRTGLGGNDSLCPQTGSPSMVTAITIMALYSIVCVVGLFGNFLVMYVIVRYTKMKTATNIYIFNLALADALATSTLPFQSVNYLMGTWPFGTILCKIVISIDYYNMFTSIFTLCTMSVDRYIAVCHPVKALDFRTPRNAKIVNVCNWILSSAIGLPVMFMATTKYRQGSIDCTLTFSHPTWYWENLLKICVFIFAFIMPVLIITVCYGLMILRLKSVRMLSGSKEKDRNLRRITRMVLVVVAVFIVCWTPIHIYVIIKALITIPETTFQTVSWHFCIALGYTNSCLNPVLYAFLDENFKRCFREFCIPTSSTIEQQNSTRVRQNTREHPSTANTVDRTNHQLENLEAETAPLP

Cricetinae gen. sp. [2] = test: Maximum efficacy in the Hamster vas deferens (HVD) functional assay was determined […] at a compound concentration of 10E-10 to 10E-5
Mus musculus [3] = test: Antinociceptive activity against acetic acid induced abdominal constriction model in mice by sc administration; assay type: functional; settings: Abdomen
Mus musculus [4] = test: Maximum efficacy in Mouse vas deferens (MVD) functional assay was determined […] at a compound concentration of 10E-10 to 10E-5
Mus musculus [5] = test: Potency in the Mouse vas deferens (MVD) functional assay was determined […]
[6] = target: Kappa-type opioid receptor (Cavia porcellus, UniProt P41144); test: Binding affinity towards Opioid receptor kappa 1 using [3H]- U-69,593 (1.5 nM) as radioligand in guinea pig brain membranes; assay type: cell membranes, Membrane
Sequence of Kappa-type opioid receptor (P41144 whole entry): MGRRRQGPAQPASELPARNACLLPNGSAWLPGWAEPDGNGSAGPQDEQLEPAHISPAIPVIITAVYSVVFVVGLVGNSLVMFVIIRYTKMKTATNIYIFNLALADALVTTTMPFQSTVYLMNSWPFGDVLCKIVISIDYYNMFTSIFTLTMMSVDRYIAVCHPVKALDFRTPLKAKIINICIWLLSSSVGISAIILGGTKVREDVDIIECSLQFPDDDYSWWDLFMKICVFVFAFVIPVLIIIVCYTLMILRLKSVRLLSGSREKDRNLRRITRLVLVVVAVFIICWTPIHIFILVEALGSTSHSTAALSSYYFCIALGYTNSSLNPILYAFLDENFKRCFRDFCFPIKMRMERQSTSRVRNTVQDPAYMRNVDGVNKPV

Cricetinae gen. sp. [7] = test: Potency in the Hamster vas deferens (HVD) functional assay was determined […]
[8] = target: T1, Delta-type opioid receptor; test: Compound was tested for inhibition of binding of [3H]- -naltrindole (0.15 nM) to membranes from CHO cells expressing human delta opioid receptor; assay type: cell membranes

T1 sequence (P41143 whole entry): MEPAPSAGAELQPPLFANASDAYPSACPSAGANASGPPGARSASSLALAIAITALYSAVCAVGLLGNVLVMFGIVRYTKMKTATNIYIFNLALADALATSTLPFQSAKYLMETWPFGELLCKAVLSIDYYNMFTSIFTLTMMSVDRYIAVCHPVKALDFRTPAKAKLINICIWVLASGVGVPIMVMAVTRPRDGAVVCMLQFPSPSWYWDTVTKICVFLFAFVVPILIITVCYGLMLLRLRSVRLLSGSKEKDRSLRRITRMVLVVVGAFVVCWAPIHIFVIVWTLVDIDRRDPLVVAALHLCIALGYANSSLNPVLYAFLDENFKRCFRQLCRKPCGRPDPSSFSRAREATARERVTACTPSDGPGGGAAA

Compound	IC50 [1] [nM]	IC50 (Mu-type opioid receptor) [nM]	Efficacy (Cricetinae gen. sp. [2]) [%]	ED50 (Mus musculus [3]) [µmol/kg]	Efficacy (Mus musculus [4]) [%]	IC50 (Mus musculus [5]) [nM]	IC50 [6] [nM]	IC50 (Cricetinae gen. sp. [7]) [nM]	IC50 [8] [nM]
CCN(CC)C(=O)c1ccc(C(c2ccccc2)N2CCN(CCO)CC2)cc1 (centres undefined)	5.5	> 10000							
CCCN1CCN(C(c2ccccc2)c2ccc(C(=O)N(CC)CC)cc2)CC1 (centres undefined)	11.4	> 10000							
C=CCN1CCN(C(c2ccccc2)c2ccc(C(=O)N(CC)CC)cc2)CC1 (stereo in doubt; 7 {1} (2))	8	> 50000							
C=CCN1C[C@H](C)N([C@H](c2ccc(C(=O)N(CC)CC)cc2)c2cccc(OC)c2)C[C@H]1C [SNC-80]			90	30.4	100	7.94	4100	50.1	
C=CCN1CCN(C(c2ccccc2)c2ccc(C(=O)N(CC)CC)cc2)CC1 (stereo in doubt; 6 {1} (2))	8								
C=CCN1CCCN(C(c2ccccc2)c2ccc(C(=O)N(CC)CC)cc2)CC1 (centres undefined)									13
C=CCN1CCN(C(c2ccccc2)c2ccc(C(=O)N(CC)CC)cc2)CC1 (stereo in doubt; 2)	4.1	> 10000	4	145	87	631	1990	> 10000	
CCN(CC)C(=O)c1ccc(C(c2ccccc2)N2CCN(c3ccc(O)cc3)CC2)cc1 (centres undefined)	10	> 10000							
CCN(CC)C(=O)c1ccc([C@H](c2ccccc2)N2C[C@@H](C)N(Cc3ccc4c(c3)OCO4)C[C@@H]2C)cc1	0.54	702	68	> 200	100	39.8		1260	
CCN(CC)C(=O)c1ccc(C(c2ccccc2)N2CC(C)NC(C)C2)cc1 (centres undefined)	42								
CCN(CC)C(=O)c1ccc(C(c2ccccc2)N2CCN(Cc3ccc4c(c3)OCO4)CC2)cc1 (centres undefined)	1.4	> 10000	52	> 200	98	100	3900	2510	
CCN(CC)C(=O)c1ccc(C(c2ccccc2)N2CCN(C3CCCC3)CC2)cc1 (centres undefined)	5.8								
CCN(CC)C(=O)c1ccc(C(NCC(C)(C)N)c2ccccc2)cc1 (centres undefined)	120								
CCN(CC)C(=O)c1ccc(C(c2ccccc2)N2CCN(CC3CCc4ccccc4C3)CC2)cc1 (centres undefined)	1.8	6240							
CCN(CC)C(=O)c1ccc(C(c2ccccc2)N(CCN(C)C)Cc2ccccc2)cc1 (centres undefined)	70	> 10000	13	48.4	7	> 10000	483	> 10000	
CCN(CC)C(=O)c1ccc(C(c2ccccc2)N2CCNC3CCCCC32)cc1 (centres undefined)	29								
CCN(CC)C(=O)c1ccc(C(c2ccccc2)N(CC)CCN(C)C)cc1 (centres undefined)	845								
